Structures can show the parent of a compound that is named as a salt.
Experiments:
Assay type in all cases: physicochemical
[1] = Stability confirmation: severe test with respect to moisture, HPLC peak area of main component; details: 93% RH, open beaker
Protocol: (§1) The acid addition salts prepared in some Examples and Comparative Examples were subjected to stability tests against high temperature and high humidity.
And, the severe tests with respect to moisture were performed by placing 50 mg of a sample in a 10 ml beaker, and measuring the content of impurities using HPLC (Azura, KNAUER, P6.1 1 L, DAD 6.1 L) after 1 week, 2 weeks, 4 weeks, and 8 weeks while storing the sample in a 93% RH desiccator in a state that the lid was not closed so that the sample has sufficient contact with the moisture in the air.
(§2) At a fixed time after the start of the test, one vial or beaker was taken out from each time point (the number of samples per test: n=1), and impurities were analyzed using HPLC under the conditions shown in Table 3 below. Then, the peak area was determined through integration for all the detected peaks, and then the relative peak area (%) for the main component was calculated and expressed as an average value.

[2] = Hygroscopicity test (weight change in desiccators of constant relative humidity); design: scale not given here; details: room temperature, one day
Protocol: The hygroscopicity tests of the acid addition salts prepared in Examples 1-1 to 1-6 and Comparative Example 1 were performed.
After one day, the change in weight was measured, then transferred to another desiccator and the previous experiment was repeated. At this time, for sorption analysis, the weight change was measured by moving the sample from a low-humidity desiccator to a high-humidity desiccator, and for desorption analysis, the weight change was measured by transferring the sample from a high-humidity desiccator with high humidity to a low-humidity desiccator.

[3] = Differential scanning calorimetry analysis after severe test with respect to temperature; details: high temperature condition (60° C.), 1 week and 8 weeks; Dihydrochloride
Protocol: For (2R,3S)-2-(3-(4,5-dichloro-1H-benzo[d]imidazol-1-yl)propyl)piperidin-3-ol monohydrochloride prepared in Example 1-1 and (2R,3S)-2-(3-(4,5-dichloro-1H-benzo[d]imidazol-1-yl)propyl)piperidin-3-ol dihydrochloride prepared in Comparative Example 1, each beaker was taken out 1 week and 8 weeks after the start of the test from the desiccator where the severe tests with respect to temperature were in progress, and the differential scanning calorimetry analysis was performed. At this time, the differential scanning calorimetry analysis was performed using a differential scanning calorimeter (DSC Q20, manufactured by TA Instruments) in a tightly closed pan under nitrogen purge at a scan rate of 10° C./min while raising the temperature from 20° C. to 300° C.

[4] = Stability confirmation: severe test with respect to temperature, HPLC peak area of main component; details: 60° C., relative humidity less than 10%
Protocol: as §1
Specifically, the severe tests with respect to temperature were performed by placing 50 mg of a sample in a vial, closing the lid, and then measuring the content of impurities using HPLC (Azura, KNAUER, P6.1 1 L, DAD 6.1 L) after 1 week, 2 weeks, 4 weeks, and 8 weeks while storing in a chamber at 60° C. and a relative humidity of less than 10%.
as §2

Molecule	relative peak area for the main component (HPLC) ([1]; after 1 week) [%]	relative peak area for the main component (HPLC) ([1]; after 2 weeks) [%]	relative peak area for the main component (HPLC) ([1]; after 4 weeks) [%]	relative peak area for the main component (HPLC) ([1]; after 8 weeks) [%]	relative peak area for the main component (HPLC) ([1]; initial) [%]	weight change, desorption ([2]; 11% RH)	weight change, desorption ([2]; 33% RH)	weight change, desorption ([2]; 54% RH)	weight change, desorption ([2]; 75% RH)	weight change, sorption ([2]; 11% RH)	weight change, sorption ([2]; 33% RH)	weight change, sorption ([2]; 54% RH)	weight change, sorption ([2]; 75% RH)	weight change, sorption ([2]; 93% RH)	relative peak area for the main component (HPLC) ([4]; after 1 week) [%]	relative peak area for the main component (HPLC) ([4]; after 2 weeks) [%]	relative peak area for the main component (HPLC) ([4]; after 4 weeks) [%]	relative peak area for the main component (HPLC) ([4]; after 8 weeks) [%]	relative peak area for the main component (HPLC) ([4]; initial) [%]	other results
O[C@H]1CCCN[C@@H]1CCCn1cnc2c(Cl)c(Cl)ccc21 [Comparative Example 1, (2R,3S)-2-(3-(4,5-dichloro-1H-benzo[d]imidazol-1-yl)propyl)piperidin-3-ol Dihydrochloride, reference compound]	–	–	–	–	–	–	–	–	–	–	–	–	–	–	–	–	–	–	–	relative peak area for the main component (HPLC) ([1]; after 1 week, Dihydrochloride): 99.7%; relative peak area for the main component (HPLC) ([1]; after 2 weeks, Dihydrochloride): 99.7%; relative peak area for the main component (HPLC) ([1]; after 4 weeks, Dihydrochloride): 99.7%; relative peak area for the main component (HPLC) ([1]; after 8 weeks, Dihydrochloride): 99.7%; relative peak area for the main component (HPLC) ([1]; initial, Dihydrochloride): 99.6%; weight change, desorption ([2]; 11% RH, Dihydrochloride): 102.9; weight change, desorption ([2]; 33% RH, Dihydrochloride): 103.9; weight change, desorption ([2]; 54% RH, Dihydrochloride): 104.7; weight change, desorption ([2]; 75% RH, Dihydrochloride): 105.4; weight change, sorption ([2]; 33% RH, Dihydrochloride): 100.9; weight change, sorption ([2]; 54% RH, Dihydrochloride): 108; weight change, sorption ([2]; 75% RH, Dihydrochloride): 105.4; weight change, sorption ([2]; 93% RH, Dihydrochloride): 128; change in differential scanning calorimetry analysis pattern [3]: shows a change in the differential scanning calorimetry analysis pattern; relative peak area for the main component (HPLC) ([4]; after 1 week, Dihydrochloride): 99.7%; relative peak area for the main component (HPLC) ([4]; after 2 weeks, Dihydrochloride): 99.7%; relative peak area for the main component (HPLC) ([4]; after 4 weeks, Dihydrochloride): 99.8%; relative peak area for the main component (HPLC) ([4]; after 8 weeks, Dihydrochloride): 99.7%; relative peak area for the main component (HPLC) ([4]; initial, Dihydrochloride): 99.6%
O[C@H]1CCCN[C@@H]1CCCn1cnc2c(Cl)c(Cl)ccc21 [Example 1-2, (2R,3S)-2-(3-(4,5-dichloro-1H-benzo[d]imidazol-1-yl)propyl)piperidin-3-ol Dioxalate I]	99.3	99.7	99.8	99.8	99.8	100	101.6	102	102.9	100	101.1	101.8	102.9	105.6	99.9	99.8	99.7	99.8	99.8	–
O[C@H]1CCCN[C@@H]1CCCn1cnc2c(Cl)c(Cl)ccc21 [Example 1-4, (2R,3S)-2-(3-(4,5-dichloro-1H-benzo[d]imidazol-1-yl)propyl)piperidin-3-ol Hemi-Oxalate]	–	–	–	–	–	101.0	101.0	101.9	103.2	100	101.0	101.6	101.9	105.4	–	–	–	–	–	–
O[C@H]1CCCN[C@@H]1CCCn1cnc2c(Cl)c(Cl)ccc21 [Example 1-5, (2R,3S)-2-(3-(4,5-dichloro-1H-benzo[d]imidazol-1-yl)propyl)piperidin-3-ol Hemi-Maleate]	–	99.8	99.8	99.9	99.8	99.5	99.8	99.8	100.5	100	100	100.7	100.9	101.6	–	99.8	99.7	99.9	99.8	–
(2R,3S)-2-(3-(4,5-dichloro-1H-benzo[d]imidazol-1-yl)propyl)piperidin-3-ol Dioxalate II [Example 1-3]	99.7	99.8	99.9	99.9	99.8	100	100	100.2	100.8	100	100	100	101.3	101.3	99.9	99.8	99.8	99.9	99.8	–

Reference: patent US20250066319A1, “NOVEL ACID ADDITION SALT AND CRYSTALLINE FORM OF (2R, 3S)-2-(3-(4,5-DICHLORO-1H-BENZO[d]IMIDAZOL-1-YL)PROPYL)PIPERIDIN-3-OL” (Daewoong Pharmaceutical Co., Ltd., priority 2021, published 2025)
